Assays:
[1] = bacteroides fragilis, 12 h, 2 µM
Description: The drug is tested on Bacteroides fragilis strain: NCTC 9343 for biotransformation. The drug concentrations were measured before and after a 12-h incubation by liquid-chromatography-coupled mass spectrometry (LC–MS)

[2] = The drug is tested on Bifidobacterium ruminantium strain: fecal isolate for biotransformation. The drug concentrations were measured before and after a 12-h incubation by liquid-chromatography-coupled mass spectrometry (LC–MS); details: 2 µM
[3] = The drug is tested on Clostridium scindens strain: ATCC35704 for biotransformation. The drug concentrations were measured before and after a 12-h incubation by liquid-chromatography-coupled mass spectrometry (LC–MS); details: 2 µM
[4] = The drug is tested on Bacteroides uniformis strain: ATCC8492 for biotransformation. The drug concentrations were measured before and after a 12-h incubation by liquid-chromatography-coupled mass spectrometry (LC–MS); details: 2 µM
[5] = The drug is tested on Edwardsiella tarda strain: ATCC23685 for biotransformation. The drug concentrations were measured before and after a 12-h incubation by liquid-chromatography-coupled mass spectrometry (LC–MS); details: 2 µM
[6] = The drug is tested on Bacteroides xylanisolvens strain: DSM18836 for biotransformation. The drug concentrations were measured before and after a 12-h incubation by liquid-chromatography-coupled mass spectrometry (LC–MS); details: 2 µM
[7] = The drug is tested on Ruminococcus gnavus strain: ATCC29149 for biotransformation. The drug concentrations were measured before and after a 12-h incubation by liquid-chromatography-coupled mass spectrometry (LC–MS); details: mediterraneibacter gnavus, 2 µM
[8] = The drug is tested on Bacteroides fragilis strain: HMW610 for biotransformation. The drug concentrations were measured before and after a 12-h incubation by liquid-chromatography-coupled mass spectrometry (LC–MS); details: 2 µM
[9] = The drug is tested on Providencia rettgeri strain: DSM1131 for biotransformation. The drug concentrations were measured before and after a 12-h incubation by liquid-chromatography-coupled mass spectrometry (LC–MS); format: ADME; design: dose 2 uM, timepoint 0 vs 12 hours; details: 2 µM
[10] = bacteroides thetaiotaomicron, 12 h, 2 µM
Description: The drug is tested on Bacteroides thetaiotaomicron strain: VPI-5482 for biotransformation. The drug concentrations were measured before and after a 12-h incubation by liquid-chromatography-coupled mass spectrometry (LC–MS)

[11] = The drug is tested on Subdoligranulum variabile strain: DSM15176 for biotransformation. The drug concentrations were measured before and after a 12-h incubation by liquid-chromatography-coupled mass spectrometry (LC–MS); details: 2 µM
[12] = The drug is tested on Bacteroides pectinophilus strain: ATCC43243 for biotransformation. The drug concentrations were measured before and after a 12-h incubation by liquid-chromatography-coupled mass spectrometry (LC–MS); details: 2 µM
[13] = The drug is tested on Clostridium sp. strain: fecal isolate for biotransformation. The drug concentrations were measured before and after a 12-h incubation by liquid-chromatography-coupled mass spectrometry (LC–MS); details: 2 µM
[14] = The drug is tested on Enterococcus faecalis strain: V583 for biotransformation. The drug concentrations were measured before and after a 12-h incubation by liquid-chromatography-coupled mass spectrometry (LC–MS); details: 2 µM
[15] = The drug is tested on Ruminococcus lactaris strain: ATCC29176 for biotransformation. The drug concentrations were measured before and after a 12-h incubation by liquid-chromatography-coupled mass spectrometry (LC–MS); details: 2 µM
[16] = The drug is tested on Bacteroides ovatus strain: ATCC8483 for biotransformation. The drug concentrations were measured before and after a 12-h incubation by liquid-chromatography-coupled mass spectrometry (LC–MS); details: 2 µM
[17] = The drug is tested on Providencia stuartii strain: ATCC25827 for biotransformation. The drug concentrations were measured before and after a 12-h incubation by liquid-chromatography-coupled mass spectrometry (LC–MS); details: 2 µM
[18] = bacteroides thetaiotaomicron, 12 h, 2 µM; remark: listed apart in the source
Description: The drug is tested on Bacteroides thetaiotaomicron strain: 7330 for biotransformation. The drug concentrations were measured before and after a 12-h incubation by liquid-chromatography-coupled mass spectrometry (LC–MS)

[19] = roseburia intestinalis, 12 h, 2 µM
Description: The drug is tested on Roseburia intestinalis strain: L1-82 for biotransformation. The drug concentrations were measured before and after a 12-h incubation by liquid-chromatography-coupled mass spectrometry (LC–MS)

[20] = The drug is tested on Bacteroides fragilis strain: HMW615 for biotransformation. The drug concentrations were measured before and after a 12-h incubation by liquid-chromatography-coupled mass spectrometry (LC–MS); details: 2 µM

Row | SMILES | Bacterial Biotransformation [1] | Bacterial Biotransformation [2] | Bacterial Biotransformation [3] | Bacterial Biotransformation [4] | Bacterial Biotransformation [5] | Bacterial Biotransformation [6] | Bacterial Biotransformation [7] | Bacterial Biotransformation [8] | Bacterial Biotransformation [9] | Bacterial Biotransformation [10] | Bacterial Biotransformation [11] | Bacterial Biotransformation [12] | Bacterial Biotransformation [13] | Bacterial Biotransformation [14] | Bacterial Biotransformation [15] | Bacterial Biotransformation [16] | Bacterial Biotransformation [17] | Bacterial Biotransformation [18] | Bacterial Biotransformation [19] | Bacterial Biotransformation [20]
1 | CCC(=O)NCC[C@@H]1CCc2ccc3c(c21)CCO3 [RAMELTEON] | Compound metabolized | Compound NOT metabolized | Compound NOT metabolized | Compound metabolized | Compound NOT metabolized | Compound metabolized | Compound NOT metabolized | Compound metabolized | Compound NOT metabolized | Compound metabolized | Compound NOT metabolized | Compound NOT metabolized | Compound NOT metabolized | Compound NOT metabolized | Compound NOT metabolized |  |  |  |  | 
2 | CC(C)(C)NC[C@H](O)COc1ccccc1C1CCCC1.CC(C)(C)NC[C@H](O)COc1ccccc1C1CCCC1.O=S(=O)(O)O [PENBUTOLOL SULFATE] | Compound NOT metabolized |  | Compound NOT metabolized | Compound metabolized | Compound NOT metabolized | Compound NOT metabolized | Compound NOT metabolized | Compound NOT metabolized |  | Compound NOT metabolized | Compound NOT metabolized |  | Compound metabolized | Compound NOT metabolized | Compound NOT metabolized | Compound NOT metabolized | Compound NOT metabolized | Compound NOT metabolized | Compound NOT metabolized | Compound NOT metabolized
3 | CCN(CC)CCNC(=O)c1cc(S(C)(=O)=O)ccc1OC [TIAPRIDE] | Compound NOT metabolized |  | Compound NOT metabolized | Compound NOT metabolized | Compound NOT metabolized |  | Compound NOT metabolized | Compound NOT metabolized | Compound NOT metabolized | Compound NOT metabolized | Compound NOT metabolized | Compound NOT metabolized | Compound NOT metabolized | Compound NOT metabolized | Compound NOT metabolized | Compound NOT metabolized | Compound NOT metabolized | Compound NOT metabolized | Compound NOT metabolized | Compound NOT metabolized
4 | COc1ccc(/C=C/C(=O)Nc2ccccc2C(=O)O)cc1OC |  |  | Compound NOT metabolized | Compound NOT metabolized | Compound NOT metabolized | Compound NOT metabolized | Compound NOT metabolized | Compound metabolized | Compound NOT metabolized | Compound NOT metabolized | Compound NOT metabolized | Compound NOT metabolized | Compound NOT metabolized | Compound NOT metabolized | Compound NOT metabolized | Compound metabolized | Compound NOT metabolized |  | Compound NOT metabolized | Compound NOT metabolized
5 | NC(CO)(CO)CO.O=C(c1ccccc1)c1ccc2n1CCC2C(=O)O (centres undefined) [KETOROLAC TROMETHAMINE] | Compound metabolized | Compound NOT metabolized | Compound NOT metabolized | Compound metabolized |  | Compound metabolized | Compound metabolized | Compound metabolized | Compound NOT metabolized | Compound metabolized | Compound metabolized | Compound NOT metabolized | Compound metabolized | Compound NOT metabolized | Compound NOT metabolized |  | Compound NOT metabolized |  |  | 
6 | CC(=O)O[C@H]1C(=O)[C@@]2(C)[C@H]([C@H](OC(=O)c3ccccc3)[C@]3(O)C[C@H](OC(=O)[C@H](O)[C@@H](NC(=O)c4ccccc4)c4ccccc4)C(C)=C1C3(C)C)[C@]1(OC(C)=O)CO[C@@H]1C[C@@H]2O [PACLITAXEL] |  | Compound NOT metabolized | Compound NOT metabolized | Compound metabolized | Compound NOT metabolized | Compound metabolized | Compound NOT metabolized |  |  | Compound NOT metabolized | Compound NOT metabolized | Compound NOT metabolized |  | Compound NOT metabolized |  |  | Compound NOT metabolized | Compound NOT metabolized | Compound NOT metabolized | Compound NOT metabolized
7 | OC(c1cc(C(F)(F)F)nc2c(C(F)(F)F)cccc12)C1CCCCN1 (centres undefined) [MEFLOQUINE] | Compound NOT metabolized |  | Compound NOT metabolized | Compound NOT metabolized |  | Compound NOT metabolized | Compound NOT metabolized | Compound NOT metabolized | Compound NOT metabolized | Compound NOT metabolized | Compound NOT metabolized | Compound NOT metabolized |  | Compound NOT metabolized |  | Compound NOT metabolized | Compound NOT metabolized | Compound NOT metabolized | Compound metabolized | Compound NOT metabolized
8 | CN(C)C(=O)C(CCN1CCC(O)(c2ccc(Cl)cc2)CC1)(c1ccccc1)c1ccccc1 [LOPERAMIDE] | Compound metabolized |  | Compound NOT metabolized | Compound metabolized | Compound NOT metabolized | Compound metabolized | Compound NOT metabolized | Compound metabolized | Compound metabolized | Compound NOT metabolized | Compound NOT metabolized | Compound NOT metabolized | Compound metabolized | Compound NOT metabolized | Compound NOT metabolized |  | Compound NOT metabolized |  | Compound metabolized | Compound NOT metabolized
